# Experimental data: US6444685B1, “N-(4-sulfonylaryl)Cyclylamine 2-hydroxyethylamines as beta-3 adrenergic receptor agonists” (Wyeth, priority 2000, dated 2002)
# Tests used:
# Type in all cases: cell-based
# [1] = molecular target: T1, human β3 adrenergic receptor (Homo sapiens, UniProt P13945); experiment: cAMP accumulation (SPA) in CHO cells transfected with human β3 adrenergic receptor; settings: for EC50: CHO cells expressing human β3-AR, cAMP, 30 min incubation, 10^−9 M to 10^−5 M, read-out: beta-3 EC50; for beta-3 (IA) maximal response relative to isoproterenol: IA = % activity compound / % activity isoproterenol at 10^−5 M, CHO human β3 cells
# T1 construct: Full length β3 AR clones (402 amino acids) containing the last 6 amino acids of hβ3— AR are prepared; expressed in transfected cells; host or cells: CHO cells
# Experimental: (§1) The ability of compounds of this invention to treat or inhibit disorders related to insulin resistance or hyperglycemia was established with representative compounds of this invention in the following standard pharmacological test procedures, which measured the binding selectivity to the β1, β2, and β3 adrenergic receptors. Binding to the receptors was measured in Chinese Hamster ovary (CHO) cells that were transfected with adrenergic receptors. The following briefly summarizes the procedures used and results obtained.
# Cloning of Human β3-AR Genomic DNA: cDNA was constructed by ligating four polymerase chain reaction (PCR) products using the following primers: an ATG-Narl fragment, sense primer 5′-[…]3′ and anti-sense primer 5′[…]3′; a Narl-Accl fragment, 5′[…]3′ as sense and 5′[…]3′ as anti-sense primer; an Accli-Styl fragment, sense primer 5′[…]3′ and anti-sense primer 5′[…]3′ and a Styl-TAG fragment, with sense primer 5′[…]3′ and anti-sense primer 5′[…]3′. The corresponding primer sequences are described in Mantzoros, C. S., et.al., Diabetes 45: 909-914 (1996). The four fragments are ligated into a pUC 18 plasmid (Gibco-BRL) and sequenced. Full length β3 AR clones (402 amino acids) containing the last 6 amino acids of hβ3— AR are prepared with the β3-βARpcDNA3from ATTC.
# (§2) Binding Procedure: Clones expressing receptor levels of 70 to 110 fmoles/mg protein were used in the test procedures. CHO cells were grown in 24-well tissue culture plates in Dulbecco's Modified Eagle Media with 10% fetal bovine serum, MEM non-essential amino acids, Penicillin-Streptompycin and Geneticin. On the day of test procedure, growth medium was replaced with preincubation media (Dulbecco's Modified Eagle Media and incubated for 30 minutes at 37° C. Preincubation medium was replaced with 0.2 ml treatment medium containing DMEM media containing 250 μM IBMX (isobutyl-1-methylxantine) plus 1 mM ascorbic acid with test compound dissolved in DMSO. Test compounds were tested over a concentration range of 10^−9 M to 10^−5 M for β3 cells and 10^−8 to 10^−4 M for β1 and β2 transfected cells. Isoproterenol (10^−5 M) was used as an internal standard for comparison of activity. Cells were incubated at 37° C. on a rocker for 30 min with the β3 cells and 15 min for β1 and β2 cells. Incubation was stopped with the addition of 0.2N HCl and neutralized with 2.5N NaOH. The plates, containing the cells and neutralized media, were stored at −20 degrees celsius until ready to test for cAMP using the SPA test kit (Amersham).
# (§3) Data Analysis and Results: Data collected from the SPA test procedure were analyzed as per cent of the maximal isoproterenol response at 10^−5 M. Activity curves were plotted using the SAS statistical and graphics software. EC50 values were generated for each compound and the maximal response (IA) developed for each compound is compared to the maximal response of isoproternol at 10^−5 M from the following formula:
# (§4) IA=% activity compound/% activity isoproterenol
# [2] = molecular target: T2, human β2-adrenergic receptor (Homo sapiens, UniProt P07550); experiment: cAMP accumulation (SPA) in CHO cells transfected with human β2 adrenergic receptor; settings: for beta-2 (IA) maximal response relative to isoproterenol: IA = % activity compound / % activity isoproterenol at 10^−5 M, CHO human β2 cells; for EC50: CHO cells transfected with human β2-AR, cAMP, 15 min incubation, 10^−8 to 10^−4 M, read-out: beta-2 EC50
# T2 construct: expressed in transfected cells; host or cells: CHO cells
# Experimental: as §1
# (§5) Transfection of CHO cells with β1 and β2 adrenergic receptors: CHO cells were transfected with human β1- or β2-adrenergic receptors as described in Tate, K. M., Eur. J. Biochem., 196:357-361 (1991).
# as §2, §3, §4
# [3] = molecular target: T3, human β1-adrenergic receptor (Homo sapiens, UniProt P08588); experiment: cAMP accumulation (SPA) in CHO cells transfected with human β1 adrenergic receptor; settings: for EC50: CHO cells transfected with human β1-AR, cAMP, 15 min incubation, 10^−8 to 10^−4 M, read-out: beta-1 EC50; for beta-1 (IA) maximal response relative to isoproterenol: IA = % activity compound / % activity isoproterenol at 10^−5 M, CHO human β1 cells
# T3 construct: expressed in transfected cells; host or cells: CHO cells
# Experimental: as §1, §5, §2, §3, §4
# T3 sequence (P08588 whole entry): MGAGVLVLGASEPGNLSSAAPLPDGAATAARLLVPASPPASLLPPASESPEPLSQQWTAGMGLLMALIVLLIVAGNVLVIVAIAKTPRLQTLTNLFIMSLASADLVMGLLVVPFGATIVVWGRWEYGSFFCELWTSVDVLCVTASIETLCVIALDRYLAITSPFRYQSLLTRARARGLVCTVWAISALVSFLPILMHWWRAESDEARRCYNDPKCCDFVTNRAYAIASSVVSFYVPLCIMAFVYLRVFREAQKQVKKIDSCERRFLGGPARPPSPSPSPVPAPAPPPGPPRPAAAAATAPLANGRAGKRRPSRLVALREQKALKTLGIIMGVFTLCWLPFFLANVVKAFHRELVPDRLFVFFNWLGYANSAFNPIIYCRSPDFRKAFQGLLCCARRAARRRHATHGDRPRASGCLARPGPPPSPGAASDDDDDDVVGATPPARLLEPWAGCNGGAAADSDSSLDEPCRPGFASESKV
# T1 sequence (P13945 whole entry): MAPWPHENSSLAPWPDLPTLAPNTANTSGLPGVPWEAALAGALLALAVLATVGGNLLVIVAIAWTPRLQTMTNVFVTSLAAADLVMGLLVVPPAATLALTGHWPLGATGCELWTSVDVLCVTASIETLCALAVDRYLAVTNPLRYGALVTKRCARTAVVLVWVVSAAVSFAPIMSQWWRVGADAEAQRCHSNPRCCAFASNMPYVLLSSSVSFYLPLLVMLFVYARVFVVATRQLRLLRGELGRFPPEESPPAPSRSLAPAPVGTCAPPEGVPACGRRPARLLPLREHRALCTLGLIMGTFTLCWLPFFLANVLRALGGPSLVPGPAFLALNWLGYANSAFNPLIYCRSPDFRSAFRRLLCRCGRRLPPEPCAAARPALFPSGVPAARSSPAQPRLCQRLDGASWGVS
# T2 sequence (P07550 whole entry): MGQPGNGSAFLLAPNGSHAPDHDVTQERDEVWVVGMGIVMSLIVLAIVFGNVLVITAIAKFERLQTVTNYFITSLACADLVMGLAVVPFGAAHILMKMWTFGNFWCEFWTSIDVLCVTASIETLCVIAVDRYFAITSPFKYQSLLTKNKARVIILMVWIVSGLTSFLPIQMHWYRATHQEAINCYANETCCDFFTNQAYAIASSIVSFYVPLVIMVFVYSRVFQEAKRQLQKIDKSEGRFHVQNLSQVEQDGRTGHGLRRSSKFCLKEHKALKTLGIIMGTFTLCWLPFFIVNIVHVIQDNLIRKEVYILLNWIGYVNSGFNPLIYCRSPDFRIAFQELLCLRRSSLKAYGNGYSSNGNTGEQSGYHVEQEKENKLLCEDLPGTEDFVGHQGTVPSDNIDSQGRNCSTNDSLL
smiles,measurement,setting,value
"CC(C)CN(CC(=O)O)S(=O)(=O)c1ccc(N2CCC(NC[C@H](O)c3ccc(O)c(NS(C)(=O)=O)c3)CC2)cc1 [Example 34, [(4-{4-[(2R)-2-Hydroxy-2-(4-hydroxy-3-methanesulfonylamino-phenyl)-ethylamino]-piperidin-1-yl}-benzenesulfonyl)-isobutyl-amino]-acetic Acid]",EC50,[1],0.006 µM
same,beta-3 (IA) maximal response relative to isoproterenol,[1],(1.1)
same,beta-2 (IA) maximal response relative to isoproterenol,[2],(0.14)
same,EC50,[3],10 µM
same,beta-1 (IA) maximal response relative to isoproterenol,[3],(0.49)
"CS(=O)(=O)Nc1cc([C@@H](O)CNC2CCN(c3ccc(S(=O)(=O)N4CCC[C@@H]4C(=O)O)cc3)CC2)ccc1O [Example 35, 1-(4-{4-[(2R)-2-Hydroxy-2-(4-hydroxy-3-methanesulfonylamino-phenyl)-ethylamino]-piperidin-1-yl}-benzenesulfonyl)-pyrrolidine-(2R)-2-carboxylic Acid]",EC50,[1],0.011 µM
same,beta-3 (IA) maximal response relative to isoproterenol,[1],(1.1)
same,beta-2 (IA) maximal response relative to isoproterenol,[2],(0.04)
same,EC50,[3],49 µM
same,beta-1 (IA) maximal response relative to isoproterenol,[3],(0.66)
"CCOC(=O)[C@@H]1CCCN1S(=O)(=O)c1ccc(N2CCC(NC[C@H](O)c3ccc(O)c(NS(C)(=O)=O)c3)CC2)cc1 [Example 36, Ethyl (2S)-1-[(4-{4-[((2R)-2-Hydroxy-2-{4-hydroxy-3-[(methylsulfonyl)amino]phenyl}ethyl)amino]-1-piperidinyl}phenyl)sulfonyl]-2-pyrrolidinecarboxylate]",EC50,[1],0.009 µM
same,beta-3 (IA) maximal response relative to isoproterenol,[1],(1)
same,EC50,[2],0.72 µM
same,beta-2 (IA) maximal response relative to isoproterenol,[2],(0.19)
same,EC50,[3],4.8 µM
same,beta-1 (IA) maximal response relative to isoproterenol,[3],(0.85)
"CCOC(=O)[C@H](CC(C)C)NS(=O)(=O)c1ccc(N2CCC(NC[C@H](O)c3ccc(O)c(NS(C)(=O)=O)c3)CC2)cc1 [Example 37, Ethyl (2S)-2-{[(4-{4-[((2R)-2-Hydroxy-2-{4-hydroxy-3-[(methylsulfonyl)amino]-phenyl}ethyl)amino]-1-piperidinyl}phenyl)sulfonyl]amino}-4-methylpentanoate]",EC50,[1],0.016 µM
same,beta-3 (IA) maximal response relative to isoproterenol,[1],(0.89)
same,EC50,[2],0.9 µM
same,beta-2 (IA) maximal response relative to isoproterenol,[2],(0.42)
same,EC50,[3],5.6 µM
same,beta-1 (IA) maximal response relative to isoproterenol,[3],(0.43)
"CCOC(=O)[C@@H](NS(=O)(=O)c1ccc(N2CCC(NC[C@H](O)c3ccc(O)c(NS(C)(=O)=O)c3)CC2)cc1)C(C)C [Example 38, Ethyl (2S)-2-{[(4-{4-[((2R)-2-hydroxy-2-{4-hydroxy-3-[(methylsulfonyl)amino]-phenyl}ethyl)amino]-1-piperidinyl}phenyl)sulfonyl]amino}-3-methylbutanoate]",EC50,[1],0.032 µM
same,beta-3 (IA) maximal response relative to isoproterenol,[1],(1.1)
same,EC50,[2],0.38 µM
same,beta-2 (IA) maximal response relative to isoproterenol,[2],(0.32)
same,EC50,[3],1.1 µM
same,beta-1 (IA) maximal response relative to isoproterenol,[3],(0.5)
"CS(=O)(=O)Nc1cc([C@@H](O)CNC2CCN(c3ccc(S(=O)(=O)N4CCC[C@H]4C(=O)O)cc3)CC2)ccc1O [Example 39, (2S)-1-[(4-{4-[((2R)-2-Hydroxy-2-{4-hydroxy-3-[(methylsulfonyl)amino]-phenyl}ethyl)amino]-1-piperidinyl}phenyl)sulfonyl]-2-pyrrolidinecarboxylic Acid]",EC50,[1],0.03 µM
same,beta-3 (IA) maximal response relative to isoproterenol,[1],(1)
same,beta-2 (IA) maximal response relative to isoproterenol,[2],(0.23)
same,EC50,[3],10 µM
same,beta-1 (IA) maximal response relative to isoproterenol,[3],(0.42)
"CS(=O)(=O)Nc1cc([C@@H](O)CNC2CCN(c3ccc(S(=O)(=O)N4CCCC4)cc3)CC2)ccc1O [Example 41, N-{2-Hydroxy-5-[(1R)-1-hydroxy-2-({1-[4-(1-pyrrolidinylsulfonyl)phenyl]-piperidinyl}-4-amino)ethyl]phenyl}methanesulfonamide]",EC50,[1],0.002 µM
same,beta-3 (IA) maximal response relative to isoproterenol,[1],(1)
same,EC50,[2],2 µM
same,beta-2 (IA) maximal response relative to isoproterenol,[2],(0.24)
same,EC50,[3],0.8 µM
same,beta-1 (IA) maximal response relative to isoproterenol,[3],(0.58)
"CS(=O)(=O)Nc1cc([C@@H](O)CNC2CCN(c3ccc(S(=O)(=O)N4CCCCC4)cc3)CC2)ccc1O [Example 42, N-{2-Hydroxy-5-[(1R)-1-hydroxy-2-({1-[4-(1-piperidinylsulfonyl)phenyl]-piperidinyl}-4-amino)ethyl]phenyl}methanesulfonamide]",EC50,[1],0.001 µM
same,beta-3 (IA) maximal response relative to isoproterenol,[1],(1)
same,EC50,[2],0.37 µM
same,beta-2 (IA) maximal response relative to isoproterenol,[2],(0.35)
same,EC50,[3],1.32 µM
same,beta-1 (IA) maximal response relative to isoproterenol,[3],(0.69)
CCOC(=O)CN(C(C)C)S(=O)(=O)c1ccc(N2CCC(NC[C@H](O)c3ccc(O)c(NS(C)(=O)=O)c3)CC2)cc1 [Example 44],EC50,[1],0.003 µM
same,beta-3 (IA) maximal response relative to isoproterenol,[1],(0.95)
same,EC50,[2],2 µM
same,beta-2 (IA) maximal response relative to isoproterenol,[2],(0.43)
same,EC50,[3],12 µM
same,beta-1 (IA) maximal response relative to isoproterenol,[3],(0.71)
"CS(=O)(=O)Nc1cc([C@@H](O)CNC2CCN(c3ccc(S(=O)(=O)NCC(=O)O)cc3)CC2)ccc1O [Example 53, 2-{[(4-{4-[((2R)-2-hydroxy-2-{4-hydroxy-3-[(methylsulfonyl)amino]phenyl}ethyl)amino]-1-piperidinyl}phenyl)sulfonyl]amino}acetic Acid]",EC50,[1],0.034 µM
same,beta-3 (IA) maximal response relative to isoproterenol,[1],(1.2)
same,beta-2 (IA) maximal response relative to isoproterenol,[2],(0.23)
same,beta-1 (IA) maximal response relative to isoproterenol,[3],(0.24)
"COC(=O)CNS(=O)(=O)c1ccc(N2CCC(NC[C@H](O)c3ccc(O)c(NS(C)(=O)=O)c3)CC2)cc1 [Example 57, Methyl 2-{[(4-{4-[((2R)-2-Hydroxy-2-{4-hydroxy-3-[(methylsulfonyl)amino]-phenyl}ethyl)amino]-1-piperidinyl}phenyl)sulfonyl]amino}acetate]",EC50,[1],0.006 µM
same,beta-3 (IA) maximal response relative to isoproterenol,[1],(0.85)
same,beta-2 (IA) maximal response relative to isoproterenol,[2],(0.18)
same,beta-1 (IA) maximal response relative to isoproterenol,[3],(0.18)
"COC(=O)N(CC(=O)O)S(=O)(=O)c1ccc(N2CCC(NC[C@H](O)c3ccc(O)c(NS(C)(=O)=O)c3)CC2)cc1 [Example 60, [[(4-{4-[((2R)-2-Hydroxy-2-{4-hydroxy-3-[(methylsulfonyl)amino]phenyl}-ethyl)amino]piperidin-1-yl}phenyl)sulfonyl](methoxycarbonyl)amino]acetic Acid]",EC50,[1],0.021 µM
same,beta-3 (IA) maximal response relative to isoproterenol,[1],(1.1)
same,EC50,[2],10 µM
same,beta-2 (IA) maximal response relative to isoproterenol,[2],(0.21)
same,EC50,[3],10 µM
same,beta-1 (IA) maximal response relative to isoproterenol,[3],(0.18)
"CS(=O)(=O)Nc1cc([C@@H](O)CNC2CCN(c3ccc(S(=O)(=O)N(CC(=O)O)Cc4cc(F)ccc4F)cc3)CC2)ccc1O [Example 63, 2-{(2,5-Difluorobenzyl)[(4-{4-[((2R)-2-hydroxy-2-{4-hydroxy-3-[(methylsulfonyl)-amino]phenyl}ethyl)amino]-1-piperidinyl}phenyl)sulfonyl]amino}acetic acid]",EC50,[1],0.005 µM
same,beta-3 (IA) maximal response relative to isoproterenol,[1],(0.91)
same,beta-2 (IA) maximal response relative to isoproterenol,[2],(0.15)
same,EC50,[3],10 µM
same,beta-1 (IA) maximal response relative to isoproterenol,[3],(0.88)
CS(=O)(=O)Nc1cc([C@@H](O)CNC2CCN(c3ccc(S(=O)(=O)N4CCN(CC(=O)O)CC4)cc3)CC2)ccc1O [Example 65],EC50,[1],0.16 µM
same,beta-3 (IA) maximal response relative to isoproterenol,[1],(0.93)
same,EC50,[2],16 µM
same,beta-2 (IA) maximal response relative to isoproterenol,[2],(0.67)
same,beta-1 (IA) maximal response relative to isoproterenol,[3],(0.23)
